# Reference: paper PMC8222254, “Self-assembly of an anion receptor with metal-dependent kinase inhibition and potent in vitro anti-cancer properties” (Nature Communications, 2021)
# Values joined by “and” are separate entries in the source; they are usually repeats but may differ in a detail not shown here. Identical values can stand only once.
# Columns and labels:
# Assay in all cases: Kinase inhibition screen, cell-free 33P ATP assay at 10 μM
# Assay type in all cases: biochemical
# [1] = molecular target: T1, 140 purified human kinases (Homo sapiens, UniProt Q8IVH8)
# T1 sequence (Q8IVH8 1-894): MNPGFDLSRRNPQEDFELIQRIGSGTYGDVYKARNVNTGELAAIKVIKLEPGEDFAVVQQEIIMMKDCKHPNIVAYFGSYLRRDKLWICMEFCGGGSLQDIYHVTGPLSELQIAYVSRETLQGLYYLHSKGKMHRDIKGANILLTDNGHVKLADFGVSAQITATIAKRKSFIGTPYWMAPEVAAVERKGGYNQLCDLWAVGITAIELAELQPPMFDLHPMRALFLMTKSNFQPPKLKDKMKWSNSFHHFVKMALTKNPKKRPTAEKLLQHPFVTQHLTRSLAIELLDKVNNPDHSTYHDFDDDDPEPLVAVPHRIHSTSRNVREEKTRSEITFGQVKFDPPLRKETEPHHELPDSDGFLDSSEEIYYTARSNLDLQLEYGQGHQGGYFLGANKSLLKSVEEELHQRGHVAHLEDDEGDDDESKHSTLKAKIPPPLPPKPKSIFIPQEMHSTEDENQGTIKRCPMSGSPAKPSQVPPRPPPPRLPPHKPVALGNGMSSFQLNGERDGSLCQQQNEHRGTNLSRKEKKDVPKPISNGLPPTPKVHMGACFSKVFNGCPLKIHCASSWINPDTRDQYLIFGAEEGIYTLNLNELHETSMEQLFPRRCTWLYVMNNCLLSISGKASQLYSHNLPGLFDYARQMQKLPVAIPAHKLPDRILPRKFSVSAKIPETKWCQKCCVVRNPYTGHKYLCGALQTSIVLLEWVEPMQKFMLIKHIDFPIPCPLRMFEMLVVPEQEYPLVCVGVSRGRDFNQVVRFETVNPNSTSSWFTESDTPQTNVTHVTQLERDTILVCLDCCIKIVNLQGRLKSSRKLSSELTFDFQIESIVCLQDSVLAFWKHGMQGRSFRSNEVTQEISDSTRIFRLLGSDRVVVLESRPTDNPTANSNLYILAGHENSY
# Experimental: (§1) [L2Cu3]^6+ and [L2Zn3]^6+ were submitted to the MRC Protein Phosphorylation and Ubiquitination Unit International Centre for Kinase Profiling (University of Dundee) and tested in duplicate (at 10 μM) against a series of 140 purified human kinases in a cell-free kinase assay using ^33P ATP[55],[56]. The kinase gene IDs from the screen were then translated into common IDs (HGNC symbol) using biomaRt package[57],[58] in R[59] and R Studio[60] and used as input to the KinMap programme.
# [2] = molecular target: 140 purified human kinases (Homo sapiens, UniProt P27448)
# 140 purified human kinases (Homo sapiens, UniProt P27448), sequence (P27448 whole entry): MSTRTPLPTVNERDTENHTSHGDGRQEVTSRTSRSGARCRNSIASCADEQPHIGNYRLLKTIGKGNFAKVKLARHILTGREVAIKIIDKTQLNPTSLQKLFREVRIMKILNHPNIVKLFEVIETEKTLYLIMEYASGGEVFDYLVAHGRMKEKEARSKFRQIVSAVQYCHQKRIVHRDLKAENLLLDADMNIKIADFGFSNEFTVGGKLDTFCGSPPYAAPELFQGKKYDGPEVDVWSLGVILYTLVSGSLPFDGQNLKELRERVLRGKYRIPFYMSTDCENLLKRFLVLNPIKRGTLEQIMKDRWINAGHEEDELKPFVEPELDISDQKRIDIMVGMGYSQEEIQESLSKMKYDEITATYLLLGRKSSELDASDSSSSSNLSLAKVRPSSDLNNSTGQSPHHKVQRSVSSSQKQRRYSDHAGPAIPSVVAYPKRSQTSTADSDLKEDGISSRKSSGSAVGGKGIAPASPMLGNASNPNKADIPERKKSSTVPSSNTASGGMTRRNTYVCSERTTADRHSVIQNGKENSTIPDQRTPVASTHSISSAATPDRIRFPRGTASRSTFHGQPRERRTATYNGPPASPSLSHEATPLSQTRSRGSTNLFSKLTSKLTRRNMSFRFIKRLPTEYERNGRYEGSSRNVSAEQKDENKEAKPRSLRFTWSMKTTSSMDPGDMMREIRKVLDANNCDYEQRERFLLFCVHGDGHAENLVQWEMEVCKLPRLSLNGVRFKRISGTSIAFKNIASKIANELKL
# Experimental: as §1
# [3] = molecular target: 140 purified human kinases (Homo sapiens, UniProt Q96SB4)
# 140 purified human kinases (Homo sapiens, UniProt Q96SB4), sequence (Q96SB4 whole entry): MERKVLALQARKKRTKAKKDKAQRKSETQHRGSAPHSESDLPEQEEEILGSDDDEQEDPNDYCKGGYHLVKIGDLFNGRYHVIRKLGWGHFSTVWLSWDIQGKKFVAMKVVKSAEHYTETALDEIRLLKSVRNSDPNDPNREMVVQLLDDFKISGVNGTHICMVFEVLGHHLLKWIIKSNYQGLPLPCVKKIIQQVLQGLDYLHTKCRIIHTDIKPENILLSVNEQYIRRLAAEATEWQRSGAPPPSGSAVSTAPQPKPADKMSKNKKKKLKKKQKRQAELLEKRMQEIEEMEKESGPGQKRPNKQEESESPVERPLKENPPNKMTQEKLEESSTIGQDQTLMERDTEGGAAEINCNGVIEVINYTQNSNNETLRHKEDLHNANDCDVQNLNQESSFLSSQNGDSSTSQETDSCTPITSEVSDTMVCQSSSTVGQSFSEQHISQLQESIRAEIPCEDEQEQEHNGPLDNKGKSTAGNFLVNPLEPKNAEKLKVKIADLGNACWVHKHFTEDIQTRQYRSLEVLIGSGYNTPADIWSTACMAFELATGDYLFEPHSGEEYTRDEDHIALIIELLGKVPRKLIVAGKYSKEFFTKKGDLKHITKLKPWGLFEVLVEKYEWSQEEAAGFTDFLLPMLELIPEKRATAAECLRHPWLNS
# Experimental: as §1
# [4] = molecular target: 140 purified human kinases (Homo sapiens, UniProt P29317)
# 140 purified human kinases (Homo sapiens, UniProt P29317), sequence (P29317 24-976): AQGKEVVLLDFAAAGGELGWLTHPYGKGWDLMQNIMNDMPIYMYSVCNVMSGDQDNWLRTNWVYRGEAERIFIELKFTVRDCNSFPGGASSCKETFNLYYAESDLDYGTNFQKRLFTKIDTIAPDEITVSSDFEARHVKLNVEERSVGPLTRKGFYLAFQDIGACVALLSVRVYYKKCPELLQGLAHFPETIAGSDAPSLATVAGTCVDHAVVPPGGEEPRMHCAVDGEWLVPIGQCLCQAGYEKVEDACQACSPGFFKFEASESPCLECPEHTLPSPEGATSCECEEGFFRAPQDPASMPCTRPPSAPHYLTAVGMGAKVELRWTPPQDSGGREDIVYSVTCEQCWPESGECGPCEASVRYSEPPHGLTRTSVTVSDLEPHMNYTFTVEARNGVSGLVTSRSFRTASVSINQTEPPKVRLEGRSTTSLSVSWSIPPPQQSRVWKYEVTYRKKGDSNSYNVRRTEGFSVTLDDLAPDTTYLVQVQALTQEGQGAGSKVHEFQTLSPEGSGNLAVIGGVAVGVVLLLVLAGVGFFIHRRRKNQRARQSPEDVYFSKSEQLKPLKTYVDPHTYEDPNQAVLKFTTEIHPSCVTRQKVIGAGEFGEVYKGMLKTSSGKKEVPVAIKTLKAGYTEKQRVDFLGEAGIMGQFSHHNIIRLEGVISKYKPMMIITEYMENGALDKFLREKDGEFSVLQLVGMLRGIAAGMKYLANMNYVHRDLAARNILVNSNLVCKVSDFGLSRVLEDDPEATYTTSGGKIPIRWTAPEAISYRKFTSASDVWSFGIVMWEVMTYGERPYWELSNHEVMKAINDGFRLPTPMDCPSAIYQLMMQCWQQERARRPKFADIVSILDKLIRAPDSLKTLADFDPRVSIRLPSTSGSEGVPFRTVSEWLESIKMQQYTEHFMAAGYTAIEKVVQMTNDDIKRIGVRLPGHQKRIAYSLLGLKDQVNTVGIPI
# Experimental: as §1
# [5] = molecular target: 140 purified human kinases (Homo sapiens, UniProt P23443)
# 140 purified human kinases (Homo sapiens, UniProt P23443), sequence (P23443 whole entry): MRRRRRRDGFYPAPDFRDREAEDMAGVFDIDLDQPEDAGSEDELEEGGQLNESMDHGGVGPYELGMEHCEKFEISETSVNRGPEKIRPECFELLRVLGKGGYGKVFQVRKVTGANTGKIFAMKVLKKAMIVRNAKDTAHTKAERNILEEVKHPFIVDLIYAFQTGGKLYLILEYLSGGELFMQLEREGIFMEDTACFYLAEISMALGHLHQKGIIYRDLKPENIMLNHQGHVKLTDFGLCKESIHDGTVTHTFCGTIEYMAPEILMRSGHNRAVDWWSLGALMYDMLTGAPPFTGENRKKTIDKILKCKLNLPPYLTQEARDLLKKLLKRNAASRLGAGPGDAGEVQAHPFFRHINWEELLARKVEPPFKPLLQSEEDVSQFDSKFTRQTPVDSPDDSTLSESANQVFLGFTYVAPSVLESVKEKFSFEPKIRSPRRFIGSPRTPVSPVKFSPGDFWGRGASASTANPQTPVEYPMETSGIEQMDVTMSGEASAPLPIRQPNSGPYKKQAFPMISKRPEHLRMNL
# Experimental: as §1
# [6] = molecular target: T2, 140 purified human kinases (Homo sapiens, UniProt P36897)
# T2 sequence (P36897 34-503): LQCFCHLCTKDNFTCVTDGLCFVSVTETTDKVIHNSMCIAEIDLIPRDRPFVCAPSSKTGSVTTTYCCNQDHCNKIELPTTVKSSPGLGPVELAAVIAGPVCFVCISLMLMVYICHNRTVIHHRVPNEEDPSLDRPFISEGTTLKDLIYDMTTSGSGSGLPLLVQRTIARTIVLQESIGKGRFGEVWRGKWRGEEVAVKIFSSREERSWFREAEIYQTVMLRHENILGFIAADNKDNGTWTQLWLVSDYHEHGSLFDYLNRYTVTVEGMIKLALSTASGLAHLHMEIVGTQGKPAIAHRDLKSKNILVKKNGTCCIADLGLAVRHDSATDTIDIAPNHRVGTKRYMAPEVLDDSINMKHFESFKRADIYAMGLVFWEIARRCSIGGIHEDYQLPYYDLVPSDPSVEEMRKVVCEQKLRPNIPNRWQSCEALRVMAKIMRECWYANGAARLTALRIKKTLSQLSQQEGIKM
# Experimental: as §1
# [7] = molecular target: 140 purified human kinases (Homo sapiens, UniProt P41240); conditions: CSK
# 140 purified human kinases (Homo sapiens, UniProt P41240), sequence (P41240 whole entry): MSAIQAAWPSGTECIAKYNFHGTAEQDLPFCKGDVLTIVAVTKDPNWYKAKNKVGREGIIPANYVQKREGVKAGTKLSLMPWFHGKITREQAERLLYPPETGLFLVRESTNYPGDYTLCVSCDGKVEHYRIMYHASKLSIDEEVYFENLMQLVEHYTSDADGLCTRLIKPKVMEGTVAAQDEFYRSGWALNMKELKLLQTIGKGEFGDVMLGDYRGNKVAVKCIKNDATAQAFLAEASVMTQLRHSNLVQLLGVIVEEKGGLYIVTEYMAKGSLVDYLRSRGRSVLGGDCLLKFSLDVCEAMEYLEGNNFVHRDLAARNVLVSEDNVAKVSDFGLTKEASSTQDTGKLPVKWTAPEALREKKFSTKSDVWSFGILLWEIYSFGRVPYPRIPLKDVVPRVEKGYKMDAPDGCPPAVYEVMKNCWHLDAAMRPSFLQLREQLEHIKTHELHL
# Experimental: as §1
smiles,measurement,setting,value
CC(=O)[O-].CC(=O)[O-].CC(=O)[O-].CC(=O)[O-].CC(=O)[O-].CC(=O)[O-].[Zn+2].[Zn+2].[Zn+2].c1ccc(-c2csc(NCCN(CCNc3nc(-c4ccccn4)cs3)CCNc3nc(-c4ccccn4)cs3)n2)nc1.c1ccc(-c2csc(NCCN(CCNc3nc(-c4ccccn4)cs3)CCNc3nc(-c4ccccn4)cs3)n2)nc1 [[L2Zn3]6+],"% Inhibition, Mean",[1]; MAP4K3,45%
same,"% Inhibition, Run 1 / Run 2",[1]; MAP4K3,48% and 43%
same,mean % activity,[1]; MAP4K3,55%
same,% activity,"[1]; MAP4K3, duplicate runs",52% and 58%
same,"% Inhibition, Mean",[2]; MARK3,4.7%
same,"% Inhibition, Run 1 / Run 2",[2]; MARK3,1.7% and 8%
same,mean % activity,[2]; MARK3,95%
same,% activity,"[2]; MARK3, duplicate runs",98% and 92%
same,"% Inhibition, Mean",[3]; SRPK1,35%
same,mean % activity,[3]; SRPK1,66%
same,% activity,"[3]; SRPK1, duplicate runs",53% and 78%
same,"% Inhibition, Mean",[4]; EPH-A2,19%
same,"% Inhibition, Run 1 / Run 2",[4]; EPH-A2,21% and 17%
same,mean % activity,[4]; EPH-A2,81%
same,% activity,"[4]; EPH-A2, duplicate runs",79% and 83%
same,"% Inhibition, Mean",[5]; S6K1,42%
same,mean % activity,[5]; S6K1,58%
same,% activity,"[5]; S6K1, duplicate runs",43% and 74%
same,"% Inhibition, Mean",[6]; TGFBR1,41%
same,"% Inhibition, Run 1 / Run 2",[6]; TGFBR1,35% and 48%
same,mean % activity,[6]; TGFBR1,59%
same,% activity,"[6]; TGFBR1, duplicate runs",65% and 53%
same,"% Inhibition, Mean",[7],8%
same,mean % activity,[7],92%
same,% activity,[7]; duplicate runs,82% and 102%
[Cu+2].[Cu+2].[Cu+2].c1ccc(-c2csc(NCCN(CCNc3nc(-c4ccccn4)cs3)CCNc3nc(-c4ccccn4)cs3)n2)nc1.c1ccc(-c2csc(NCCN(CCNc3nc(-c4ccccn4)cs3)CCNc3nc(-c4ccccn4)cs3)n2)nc1 [[L2Cu3]6+],% Inhibition Run 1,[1]; MAP4K3,72.4%
same,% Inhibition Run 2,[1]; MAP4K3,85.5%
same,"% Inhibition, Mean",[1]; MAP4K3,79%
same,mean % activity,[1]; MAP4K3,21%
same,% activity,"[1]; MAP4K3, Run 1",27.6%
same,% activity,"[1]; MAP4K3, Run 2",14.5%
same,% Inhibition Run 1,[2]; MARK3,28.5%
same,% Inhibition Run 2,[2]; MARK3,28.2%
same,"% Inhibition, Mean",[2]; MARK3,28%
same,mean % activity,[2]; MARK3,72%
same,% activity,"[2]; MARK3, Run 1",71.5%
same,% activity,"[2]; MARK3, Run 2",71.8%
same,% Inhibition Run 1,[3]; SRPK1,58.1%
same,% Inhibition Run 2,[3]; SRPK1,50.4%
same,"% Inhibition, Mean",[3]; SRPK1,54%
same,mean % activity,[3]; SRPK1,46%
same,% activity,"[3]; SRPK1, Run 1",41.9%
same,% activity,"[3]; SRPK1, Run 2",49.6%
same,% Inhibition Run 1,[4]; EPH-A2,3.5%
same,% Inhibition Run 2,[4]; EPH-A2,9.8%
same,"% Inhibition, Mean",[4]; EPH-A2,6.65%
same,mean % activity,[4]; EPH-A2,93%
same,% activity,"[4]; EPH-A2, Run 1",96.5%
same,% activity,"[4]; EPH-A2, Run 2",90.2%
same,% Inhibition Run 1,[5]; S6K1,79%
same,% Inhibition Run 2,[5]; S6K1,89.6%
same,"% Inhibition, Mean",[5]; S6K1,84%
same,mean % activity,[5]; S6K1,16%
same,% activity,"[5]; S6K1, Run 1",21%
same,% activity,"[5]; S6K1, Run 2",10.4%
same,"% Activation, Mean value",[6]; TGFBR1,30%
same,% Inhibition Run 1,[6]; TGFBR1,-44.2%
same,% Inhibition Run 2,[6]; TGFBR1,-16.7%
same,"% Inhibition, Mean",[6]; TGFBR1,-30%
same,mean % activity,[6]; TGFBR1,130%
same,% activity,"[6]; TGFBR1, Run 1",144.2%
same,% activity,"[6]; TGFBR1, Run 2",116.7%
same,% Activity Run 1,"[6]; TGFBR1, 10 µM",144.20%
same,% Activity Run 2,"[6]; TGFBR1, 10 µM",116.70%
same,% Inhibition Run 1,[7],11.5%
same,% Inhibition Run 2,[7],10.8%
same,"% Inhibition, Mean",[7],11%
same,mean % activity,[7],89%
same,% activity,[7]; Run 1,88.5%
same,% activity,[7]; Run 2,89.2%
